# Data as given in ChEMBL document CHEMBL1201862, “PubChem BioAssay data set” (2004).
# The source made the active and inactive calls.
# Key:
# [1] = target: T1, Hexokinase HKDC1 (Homo sapiens, UniProt Q2TB90); test: HKDC1 hexokinase inhibitors, dose response, biochemical, W721R variant (AID 504729); type: functional
# T1 sequence (Q2TB90 whole entry): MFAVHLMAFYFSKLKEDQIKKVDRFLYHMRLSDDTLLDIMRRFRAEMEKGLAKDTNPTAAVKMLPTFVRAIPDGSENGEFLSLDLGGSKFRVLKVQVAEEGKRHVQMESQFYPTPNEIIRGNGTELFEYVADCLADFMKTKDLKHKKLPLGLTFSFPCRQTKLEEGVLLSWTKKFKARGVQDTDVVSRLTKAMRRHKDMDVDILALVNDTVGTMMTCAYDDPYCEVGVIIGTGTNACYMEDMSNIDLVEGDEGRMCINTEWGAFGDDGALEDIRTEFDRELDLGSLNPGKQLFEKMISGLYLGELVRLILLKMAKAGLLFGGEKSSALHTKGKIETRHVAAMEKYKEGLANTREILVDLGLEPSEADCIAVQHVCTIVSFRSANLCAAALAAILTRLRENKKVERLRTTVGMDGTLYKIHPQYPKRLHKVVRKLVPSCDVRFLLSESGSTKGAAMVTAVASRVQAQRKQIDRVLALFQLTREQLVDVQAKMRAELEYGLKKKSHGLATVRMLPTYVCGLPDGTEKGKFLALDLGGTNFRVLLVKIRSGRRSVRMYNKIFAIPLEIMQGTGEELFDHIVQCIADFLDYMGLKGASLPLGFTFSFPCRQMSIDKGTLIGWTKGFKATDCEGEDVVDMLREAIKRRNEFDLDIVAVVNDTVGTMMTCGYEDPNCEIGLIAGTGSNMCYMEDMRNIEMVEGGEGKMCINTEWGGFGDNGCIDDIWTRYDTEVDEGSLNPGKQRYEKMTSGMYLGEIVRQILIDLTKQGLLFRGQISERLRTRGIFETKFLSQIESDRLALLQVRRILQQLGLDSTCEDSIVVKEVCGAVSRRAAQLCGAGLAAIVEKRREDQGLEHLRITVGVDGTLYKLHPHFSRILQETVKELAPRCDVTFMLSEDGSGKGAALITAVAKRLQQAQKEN
# [2] = target: ELAV-like protein 1 (Homo sapiens, UniProt Q15717); test: Identify HuR specific inhibitors.; type: functional
# [3] = target: T2, Peroxisome proliferator-activated receptor gamma/Nuclear receptor coactivator 2 (Homo sapiens, UniProt P37231); type: functional
# [4] = target: T3, Peroxisome proliferator-activated receptor gamma/Nuclear receptor coactivator 1 (Homo sapiens, UniProt P37231); type: functional
# [5] = target: Neuropeptide Y receptor type 2 (Homo sapiens, UniProt P49146); test: NPY-Y2 antagonist potency, selectivity check, dose response, counter-screen for NPY-Y1 antagonist project, cell-based (AID 1278); type: functional
# [6] = target: T4, Peroxisome proliferator-activated receptor gamma/Nuclear receptor coactivator 3 (Homo sapiens, UniProt P37231); type: functional
# [7] = target: E3 ubiquitin-protein ligase Mdm2 (Homo sapiens, UniProt Q00987); test: enhancers of MDM2-luciferase reporter signal, concentration-effect titration, project on inhibitors of MDM2 ubiquitin ligase, cellular assay, luminescent readout, 384-well plate format (AID 1394); type: functional;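 note: MDM2 E3 inhibitors raise luminescence so EC50 is for signal enhancement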
# [8] = target: Heat shock protein HSP 90-alpha (Homo sapiens, UniProt P07900); type: functional, organism-based
# [9] = Vero cell cytotoxicity, dose response, cytotoxicity control for Vif-APOBEC3G degradation inhibitor project, Vero cells (AID 1117358); type: functional; settings: Human immunodeficiency virus 1, Vero
# [10] = target: T3, Peroxisome proliferator-activated receptor gamma/Nuclear receptor coactivator 1; test: TR-FRET dose response biochemical High Throughput Screening assay for agonists of the steroid receptor coactivator 1 (SRC-1) recruitment by the peroxisome proliferator-activated receptor gamma (PPAR gamma): non-selective agonists. [Related pubchem assays (depositor defined):AID1300, AID1808, AID504735, AID631]; type: protein assay
# [11] = target: T4, Peroxisome proliferator-activated receptor gamma/Nuclear receptor coactivator 3; test: TR-FRET dose response biochemical High Throughput Screening assay for agonists of the steroid receptor coactivator 3 (SRC-3) recruitment by the peroxisome proliferator-activated receptor gamma (PPAR gamma): non-selective agonists. [Related pubchem assays: 1301 (Confirmation screen.), 1048 (Primary screen.)]; type: functional
# [12] = cytotoxicity in HPDE-C7 cells, cell-based, fluorescence, HTS (AID 430); type: functional; settings: Homo sapiens
# [13] = M. tuberculosis growth inhibition, HTS (AID 449762); type: functional
# [14] = microbe, parasite or virus in culture; type: functional; settings: Mycobacterium tuberculosis
# [15] = cytotoxicity in KRAS-transformed pancreatic duct cells, primary screen, cell-based, fluorescence, HTS (AID 431); type: functional; settings: Homo sapiens;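 note: cell line used: HPDE-C7K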
# [16] = target: T2, Peroxisome proliferator-activated receptor gamma/Nuclear receptor coactivator 2; test: TR-FRET dose response biochemical High Throughput Screening assay for agonists of the steroid receptor coactivator 2 (SRC-2) recruitment by the peroxisome proliferator-activated receptor gamma (PPAR gamma): non-selective agonists. [Related pubchem assays: 1297, 1032 ]; type: functional
# [17] = target: T5, Replicative DNA helicase DnaB (Mycobacterium tuberculosis, UniProt P9WMR3); test: DnaB intein splicing inhibitors, dose response, biochemical, cell-free fluorescence (AID 449749); type: functional
# T5 sequence (P9WMR3 whole entry): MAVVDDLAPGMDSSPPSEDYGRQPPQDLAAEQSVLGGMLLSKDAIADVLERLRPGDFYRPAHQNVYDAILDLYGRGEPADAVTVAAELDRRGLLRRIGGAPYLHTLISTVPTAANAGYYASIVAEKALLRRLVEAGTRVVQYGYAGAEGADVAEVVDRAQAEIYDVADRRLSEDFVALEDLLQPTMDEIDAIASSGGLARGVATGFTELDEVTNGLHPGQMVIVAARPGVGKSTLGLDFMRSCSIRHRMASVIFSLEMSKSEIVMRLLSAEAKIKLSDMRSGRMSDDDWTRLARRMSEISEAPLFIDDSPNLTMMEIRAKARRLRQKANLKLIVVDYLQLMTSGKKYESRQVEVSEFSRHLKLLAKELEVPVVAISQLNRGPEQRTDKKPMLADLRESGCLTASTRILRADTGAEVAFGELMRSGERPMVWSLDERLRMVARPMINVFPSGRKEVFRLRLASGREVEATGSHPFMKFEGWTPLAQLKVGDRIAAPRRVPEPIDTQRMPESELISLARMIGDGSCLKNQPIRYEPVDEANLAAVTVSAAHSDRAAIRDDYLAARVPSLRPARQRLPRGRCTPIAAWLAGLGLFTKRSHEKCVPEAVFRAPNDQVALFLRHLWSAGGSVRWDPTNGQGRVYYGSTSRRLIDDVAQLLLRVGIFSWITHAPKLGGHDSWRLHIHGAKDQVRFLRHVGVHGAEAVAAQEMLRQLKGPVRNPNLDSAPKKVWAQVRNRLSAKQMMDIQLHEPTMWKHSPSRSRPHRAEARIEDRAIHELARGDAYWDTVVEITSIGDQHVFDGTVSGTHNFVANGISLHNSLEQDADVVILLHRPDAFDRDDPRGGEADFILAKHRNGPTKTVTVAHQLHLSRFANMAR
# [18] = target: T6, Protein RecA (Mycobacterium tuberculosis, UniProt P9WHJ3); test: Fluorescence Cell-Free Homogeneous Dose Retest to Identify Inhibitors of RecA-Intein Splicing Activity. [Related pubchem assays (depositor defined):AID2097, AID2223, AID489010, AID492950]; type: functional
# T6 sequence (P9WHJ3 whole entry): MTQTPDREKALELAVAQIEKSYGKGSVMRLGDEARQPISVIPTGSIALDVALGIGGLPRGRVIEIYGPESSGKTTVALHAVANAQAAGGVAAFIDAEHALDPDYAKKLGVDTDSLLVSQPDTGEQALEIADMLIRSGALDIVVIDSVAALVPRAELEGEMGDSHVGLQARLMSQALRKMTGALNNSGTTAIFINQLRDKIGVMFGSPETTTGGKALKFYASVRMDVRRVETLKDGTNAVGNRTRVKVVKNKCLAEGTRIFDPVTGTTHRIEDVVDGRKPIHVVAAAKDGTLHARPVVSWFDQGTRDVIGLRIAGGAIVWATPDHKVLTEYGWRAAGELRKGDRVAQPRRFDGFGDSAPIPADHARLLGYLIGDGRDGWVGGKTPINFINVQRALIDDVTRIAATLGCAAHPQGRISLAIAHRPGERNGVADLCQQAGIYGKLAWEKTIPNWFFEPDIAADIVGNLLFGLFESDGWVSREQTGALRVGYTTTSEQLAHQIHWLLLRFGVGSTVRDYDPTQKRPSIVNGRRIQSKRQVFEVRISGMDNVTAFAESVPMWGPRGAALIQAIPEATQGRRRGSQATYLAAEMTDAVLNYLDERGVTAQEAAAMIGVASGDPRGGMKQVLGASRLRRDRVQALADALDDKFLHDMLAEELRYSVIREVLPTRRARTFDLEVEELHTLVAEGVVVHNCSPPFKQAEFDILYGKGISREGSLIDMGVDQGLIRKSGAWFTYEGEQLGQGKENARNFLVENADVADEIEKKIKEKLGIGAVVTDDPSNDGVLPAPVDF
# [19] = target: T7, Fatty acid synthase (Homo sapiens, UniProt P49327); test: FAS thioesterase domain inhibitors, dose response, biochemical, endpoint fluorescence intensity, uHTS hits (AID 624327); type: functional;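 note: fluorescence from hydrolysis of an O-methyl fluorescein acyl ester substrate by the enzyme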
# [20] = target: T7, Fatty acid synthase; test: FAS thioesterase domain inhibitors, dose response, biochemical, kinetic fluorescence intensity (AID 624326); type: functional;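 note: rate of fluorescence rise from hydrolysis of a fluorogenic O-methyl fluorescein ester substrate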
# [21] = target: T8, Bcl-2-related protein A1 (Mus musculus, UniProt Q07440); test: Bfl-1 inhibitors, primary screen, biochemical, fluorescence polarization, FITC-Bid, mouse (AID 432)
# T8 sequence (Q07440 whole entry): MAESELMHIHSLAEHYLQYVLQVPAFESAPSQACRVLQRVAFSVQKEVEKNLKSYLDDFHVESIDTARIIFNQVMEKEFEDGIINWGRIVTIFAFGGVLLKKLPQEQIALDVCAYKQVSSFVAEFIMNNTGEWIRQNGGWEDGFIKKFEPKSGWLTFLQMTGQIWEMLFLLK
# [22] = target: T8, Bcl-2-related protein A1; test: Bfl-1 inhibitors blocking BH3 peptide binding, confirmation, biochemical, TR-FRET, mouse Bfl-1 (AID 621);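 note: TR-FRET binding of GST-Bfl-1 to FITC-labelled Bid peptide via terbium antibody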
# [23] = target: Glucose-6-phosphate 1-dehydrogenase (Homo sapiens, UniProt P11413); test: human G6PD enzyme inhibitors, dose response, selectivity assay for P. falciparum G6PD inhibitor project, biochemical, fluorescence (AID 504792); type: functional
# [24] = target: Genome polyprotein (dengue virus type 2, UniProt P29990); test: Dengue-2 NS5 methyltransferase inhibitors, primary screen, biochemical, confirmation dose response (AID 588689); type: functional
# [25] = target: T9, Protein Tat (Human immunodeficiency virus type 1 group M subtype B (isolate HXB2)(HIV-1), UniProt P04608); type: functional;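 note: tat binding to TAR RNA read out by fluorescence polarization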
# T9 sequence (P04608 whole entry): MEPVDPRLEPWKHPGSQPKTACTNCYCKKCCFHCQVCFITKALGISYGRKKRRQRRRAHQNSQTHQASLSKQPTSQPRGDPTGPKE
# [26] = THP-1 cell cytotoxicity, dose response, cytotoxicity control for Vif-APOBEC3G degradation inhibitor project, THP-1 cells (AID 1117359); type: functional; settings: Human immunodeficiency virus 1, THP-1
# [27] = inhibitors of Vif binding to APOBEC3G peptide, primary screen, biochemical, TR-FRET, GST-Vif 1-94, biotin-A3G peptide, dose response retest (AID 1117319); type: functional;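 note: TR-FRET signal of purified GST-Vif binding a biotinylated A3G peptide; inhibitors lower the FRET signal by blocking Vif and A3G binding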
# [28] = target: T10, Tyrosine-protein phosphatase non-receptor type 7 (Homo sapiens, UniProt P35236); test: inhibitors of human HePTP phosphatase, […], biochemical, absorbance, leukemia target (AID 521); type: functional
# T10 sequence (P35236 whole entry): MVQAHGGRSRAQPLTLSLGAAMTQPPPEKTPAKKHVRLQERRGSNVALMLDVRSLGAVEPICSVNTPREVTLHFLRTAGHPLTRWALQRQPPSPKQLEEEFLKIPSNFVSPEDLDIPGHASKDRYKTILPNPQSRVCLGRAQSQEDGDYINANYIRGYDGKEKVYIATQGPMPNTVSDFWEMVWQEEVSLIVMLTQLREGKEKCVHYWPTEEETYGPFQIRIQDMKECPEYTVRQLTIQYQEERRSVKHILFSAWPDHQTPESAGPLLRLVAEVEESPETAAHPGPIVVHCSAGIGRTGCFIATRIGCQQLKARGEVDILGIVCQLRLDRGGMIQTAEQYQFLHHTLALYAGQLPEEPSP
# T7 sequence (P49327 whole entry, the tested form may be a part): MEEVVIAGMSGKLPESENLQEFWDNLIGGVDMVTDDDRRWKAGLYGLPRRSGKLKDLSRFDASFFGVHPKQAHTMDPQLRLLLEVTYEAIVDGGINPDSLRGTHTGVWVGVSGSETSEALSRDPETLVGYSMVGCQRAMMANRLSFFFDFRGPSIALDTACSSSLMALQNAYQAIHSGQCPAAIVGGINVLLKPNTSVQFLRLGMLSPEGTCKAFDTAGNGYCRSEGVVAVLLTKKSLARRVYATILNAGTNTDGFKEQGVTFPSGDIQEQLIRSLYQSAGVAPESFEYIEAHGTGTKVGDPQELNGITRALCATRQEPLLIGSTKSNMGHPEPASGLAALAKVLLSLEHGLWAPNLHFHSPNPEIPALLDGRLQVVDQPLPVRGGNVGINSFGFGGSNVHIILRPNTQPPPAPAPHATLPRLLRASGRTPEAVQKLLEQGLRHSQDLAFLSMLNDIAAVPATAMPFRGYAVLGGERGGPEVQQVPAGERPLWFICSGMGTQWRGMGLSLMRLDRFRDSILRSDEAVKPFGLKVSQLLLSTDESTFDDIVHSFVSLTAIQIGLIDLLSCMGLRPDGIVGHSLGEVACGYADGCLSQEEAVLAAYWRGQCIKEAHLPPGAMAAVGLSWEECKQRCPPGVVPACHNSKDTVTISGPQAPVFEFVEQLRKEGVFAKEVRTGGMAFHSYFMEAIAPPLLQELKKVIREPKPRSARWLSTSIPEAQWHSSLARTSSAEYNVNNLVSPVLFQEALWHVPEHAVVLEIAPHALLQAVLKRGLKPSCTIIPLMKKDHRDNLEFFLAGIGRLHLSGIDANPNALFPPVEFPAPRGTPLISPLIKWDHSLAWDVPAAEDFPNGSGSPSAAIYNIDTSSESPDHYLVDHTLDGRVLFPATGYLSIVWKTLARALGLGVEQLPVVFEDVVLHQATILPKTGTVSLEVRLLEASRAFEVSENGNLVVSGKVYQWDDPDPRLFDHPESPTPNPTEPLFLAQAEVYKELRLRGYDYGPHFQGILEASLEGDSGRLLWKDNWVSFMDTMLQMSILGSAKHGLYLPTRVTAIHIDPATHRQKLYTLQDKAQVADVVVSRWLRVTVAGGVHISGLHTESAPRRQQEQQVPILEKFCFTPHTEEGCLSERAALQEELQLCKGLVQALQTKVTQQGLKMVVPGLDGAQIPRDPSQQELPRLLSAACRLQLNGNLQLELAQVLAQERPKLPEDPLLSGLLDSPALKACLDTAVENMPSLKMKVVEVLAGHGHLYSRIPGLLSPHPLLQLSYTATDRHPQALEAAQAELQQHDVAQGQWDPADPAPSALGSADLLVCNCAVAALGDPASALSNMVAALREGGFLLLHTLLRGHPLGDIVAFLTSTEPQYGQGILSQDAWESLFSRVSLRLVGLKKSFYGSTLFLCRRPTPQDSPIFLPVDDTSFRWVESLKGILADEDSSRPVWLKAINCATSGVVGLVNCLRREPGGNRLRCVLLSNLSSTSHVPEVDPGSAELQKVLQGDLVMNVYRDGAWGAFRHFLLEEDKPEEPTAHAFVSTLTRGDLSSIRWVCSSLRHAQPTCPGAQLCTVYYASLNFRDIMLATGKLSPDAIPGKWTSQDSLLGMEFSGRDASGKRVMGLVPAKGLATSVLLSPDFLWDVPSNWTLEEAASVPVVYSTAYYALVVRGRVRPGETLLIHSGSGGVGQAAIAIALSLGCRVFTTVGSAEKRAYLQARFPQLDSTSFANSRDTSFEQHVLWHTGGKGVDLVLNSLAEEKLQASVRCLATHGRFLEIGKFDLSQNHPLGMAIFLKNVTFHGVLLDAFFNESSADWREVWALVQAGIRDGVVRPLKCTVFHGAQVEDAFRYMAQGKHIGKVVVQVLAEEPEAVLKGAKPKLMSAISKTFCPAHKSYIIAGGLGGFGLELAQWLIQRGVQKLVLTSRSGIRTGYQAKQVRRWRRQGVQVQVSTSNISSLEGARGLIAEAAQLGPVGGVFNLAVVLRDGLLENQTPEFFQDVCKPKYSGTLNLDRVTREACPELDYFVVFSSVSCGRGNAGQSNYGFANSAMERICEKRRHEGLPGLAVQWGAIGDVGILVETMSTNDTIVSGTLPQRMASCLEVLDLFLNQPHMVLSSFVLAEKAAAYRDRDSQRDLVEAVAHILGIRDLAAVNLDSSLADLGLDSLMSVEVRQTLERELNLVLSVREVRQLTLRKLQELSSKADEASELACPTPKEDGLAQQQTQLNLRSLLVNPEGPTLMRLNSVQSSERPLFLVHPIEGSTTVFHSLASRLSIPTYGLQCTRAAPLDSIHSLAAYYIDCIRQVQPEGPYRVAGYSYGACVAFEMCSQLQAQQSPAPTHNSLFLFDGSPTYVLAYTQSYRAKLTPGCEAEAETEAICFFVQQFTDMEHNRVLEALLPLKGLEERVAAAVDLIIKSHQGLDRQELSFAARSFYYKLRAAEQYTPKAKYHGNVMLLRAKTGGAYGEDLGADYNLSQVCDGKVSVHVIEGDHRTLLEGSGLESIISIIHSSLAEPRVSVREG
# T4 sequence (P37231 whole entry): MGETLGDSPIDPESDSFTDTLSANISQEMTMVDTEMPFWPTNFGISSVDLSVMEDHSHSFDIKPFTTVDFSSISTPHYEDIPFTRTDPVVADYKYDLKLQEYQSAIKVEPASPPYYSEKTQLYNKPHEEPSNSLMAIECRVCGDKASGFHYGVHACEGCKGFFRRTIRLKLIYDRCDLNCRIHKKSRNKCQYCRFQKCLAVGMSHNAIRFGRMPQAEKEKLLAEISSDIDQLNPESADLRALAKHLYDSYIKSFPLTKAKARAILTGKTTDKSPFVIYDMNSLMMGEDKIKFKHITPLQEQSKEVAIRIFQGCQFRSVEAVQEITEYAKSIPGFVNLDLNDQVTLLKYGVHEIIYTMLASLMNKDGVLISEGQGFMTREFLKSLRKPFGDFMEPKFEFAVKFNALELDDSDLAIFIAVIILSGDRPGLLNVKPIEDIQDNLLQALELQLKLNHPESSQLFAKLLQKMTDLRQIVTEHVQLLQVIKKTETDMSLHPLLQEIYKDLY
# T4 sequence (Q9Y6Q9 whole entry, further chain): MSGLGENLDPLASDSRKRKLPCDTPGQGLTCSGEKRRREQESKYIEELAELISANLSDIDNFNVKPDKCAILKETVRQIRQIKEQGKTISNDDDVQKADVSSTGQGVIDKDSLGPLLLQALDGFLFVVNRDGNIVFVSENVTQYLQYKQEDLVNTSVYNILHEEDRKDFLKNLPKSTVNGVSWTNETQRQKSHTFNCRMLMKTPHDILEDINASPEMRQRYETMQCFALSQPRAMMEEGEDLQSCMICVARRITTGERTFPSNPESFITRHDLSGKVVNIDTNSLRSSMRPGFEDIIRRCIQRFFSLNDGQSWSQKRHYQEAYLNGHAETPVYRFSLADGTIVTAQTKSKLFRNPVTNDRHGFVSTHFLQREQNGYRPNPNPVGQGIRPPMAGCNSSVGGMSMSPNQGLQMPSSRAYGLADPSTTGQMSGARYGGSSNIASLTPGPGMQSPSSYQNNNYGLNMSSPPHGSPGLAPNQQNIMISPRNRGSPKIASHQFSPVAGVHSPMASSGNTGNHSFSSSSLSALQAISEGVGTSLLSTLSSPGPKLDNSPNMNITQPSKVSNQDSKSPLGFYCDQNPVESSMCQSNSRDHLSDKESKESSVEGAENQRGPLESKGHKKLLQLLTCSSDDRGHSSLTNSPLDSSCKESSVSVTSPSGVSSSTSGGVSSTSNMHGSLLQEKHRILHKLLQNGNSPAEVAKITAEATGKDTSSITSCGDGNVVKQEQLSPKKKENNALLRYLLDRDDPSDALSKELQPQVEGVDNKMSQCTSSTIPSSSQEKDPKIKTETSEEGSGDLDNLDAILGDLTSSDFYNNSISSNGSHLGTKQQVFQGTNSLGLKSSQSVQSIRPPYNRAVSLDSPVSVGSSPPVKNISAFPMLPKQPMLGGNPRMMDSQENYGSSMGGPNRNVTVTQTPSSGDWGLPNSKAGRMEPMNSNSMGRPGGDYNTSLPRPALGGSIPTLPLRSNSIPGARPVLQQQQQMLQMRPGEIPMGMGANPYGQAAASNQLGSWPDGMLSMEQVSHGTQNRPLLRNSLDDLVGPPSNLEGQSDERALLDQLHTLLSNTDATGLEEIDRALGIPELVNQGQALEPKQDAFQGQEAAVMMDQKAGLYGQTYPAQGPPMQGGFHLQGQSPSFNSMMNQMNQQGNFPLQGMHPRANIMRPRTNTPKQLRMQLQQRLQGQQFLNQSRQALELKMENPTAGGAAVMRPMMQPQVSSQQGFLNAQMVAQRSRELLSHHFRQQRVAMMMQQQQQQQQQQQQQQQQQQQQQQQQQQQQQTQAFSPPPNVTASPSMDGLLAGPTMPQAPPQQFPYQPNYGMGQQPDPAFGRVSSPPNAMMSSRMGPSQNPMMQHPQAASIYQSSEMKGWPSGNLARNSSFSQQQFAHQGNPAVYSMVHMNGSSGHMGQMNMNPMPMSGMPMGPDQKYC
# Sequence of Neuropeptide Y receptor type 2 (P49146 whole entry): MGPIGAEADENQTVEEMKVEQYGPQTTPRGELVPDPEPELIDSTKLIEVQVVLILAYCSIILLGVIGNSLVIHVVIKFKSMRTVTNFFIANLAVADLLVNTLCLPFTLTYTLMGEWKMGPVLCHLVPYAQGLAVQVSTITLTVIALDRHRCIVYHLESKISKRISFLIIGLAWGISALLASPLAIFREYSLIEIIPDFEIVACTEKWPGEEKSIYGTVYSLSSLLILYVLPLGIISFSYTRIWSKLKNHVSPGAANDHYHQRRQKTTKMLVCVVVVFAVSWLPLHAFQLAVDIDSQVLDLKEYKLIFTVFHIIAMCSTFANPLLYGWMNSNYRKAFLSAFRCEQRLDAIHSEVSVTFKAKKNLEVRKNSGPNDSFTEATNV
smiles,measurement,setting,value
COCC(=O)OC1CCn2c1nc1c2C(=O)C(C)=C(NC(C)=O)C1=O (stereo not drawn),IC50,[1],2.18 µM (active)
same,IC50,[2],17.4 µM (inactive)
Cn1ccnc1C1CCCCN1Cc1nc(-c2ccc3c(c2)OCO3)no1 (stereo not drawn),EC50,[3],> 79.4 µM (not active)
same,EC50,[4],> 79.4 µM (not active)
same,IC50,[5],> 35 µM (not active)
same,EC50,[6],> 79.4 µM (not active)
CCn1c(=O)n(CC(=O)Nc2cc(OC)c(OC)c(OC)c2)c(=O)c2ccccc21,EC50,[7],13.2 µM (not active)
CCCCCCC(=O)N(O)C1CC(=O)N(c2ccc(Br)cc2)C1=O (stereo not drawn),AC50,[8],3.17 µM (active)
same,CC50,[9],> 40 µM (active)
O=C(Sc1nnc(-c2ccccc2)o1)N1c2ccccc2Sc2ccccc21,EC50,[10],34.9 µM (inactive)
same,EC50,[11],> 79.4 µM (not active)
same,EC50,[12],5.48 µM (active)
same,IC50,[13],> 100 µM (active)
same,CC50,[14],> 40 µM (active)
same,EC50,[15],6.64 µM (active)
same,EC50,[16],20.8 µM (not active)
same,AC50,[17],1.25 µM (active)
same,EC50,[18],0.804 µM (active)
same,IC50,[19],10.4 µM (active)
same,IC50,[20],16.3 µM (active)
COc1ccc(-c2nnc3sc(-c4c(OC)cccc4OC)nn23)cc1,IC50,[21],18.1 µM (active)
same,IC50,[22],> 100 µM (not active)
Cc1ccc(CNc2ccc(O)cc2)cc1,IC50,[23],> 80 µM (inactive)
same,IC50,[24],92.5 µM (active)
same,IC50,[25],25.5 µM (inconclusive)
same,CC50,[26],> 40 µM (active)
same,IC50,[27],> 50.9 µM (active)
O=C(CCCn1c(=O)[nH]c2cc(Cl)ccc2c1=O)NCCN1CCN(c2ccccc2)CC1,IC50,[28],> 100 µM (not active)
